Source: ChEMBL document CHEMBL1201862, “PubChem BioAssay data set” (2004)
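Growth conditions: 96-well plates. Treatment: test compound, 48 hours, 5 concentrations. Analysis: linear interpolation between bracketing concentrations; unreached endpoints set to highest concentration. At the GI50, growth is halved.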 Active and inactive are the calls of the source. No stated cut-off is given here; in the data, active = GI50 up to about 1.1 µM and inactive = higher.

How the values were obtained:
Test in all cases: DTP human tumour cell line panel, 48 h
MOLT-4 = test system: MOLT-4
SNB-19 = test system: SNB-19
HOP-92 = test system: HOP-92
SK-OV-3 = test system: SK-OV-3
COLO 205 = test system: COLO 205
RXF 393 = test system: RXF 393
UACC-257 = test system: UACC-257
MDA-MB-231 = test system: MDA-MB-231
OVCAR-8 = test system: OVCAR-8
CCRF-CEM = test system: CCRF-CEM
SK-MEL-28 = test system: SK-MEL-28
SF-295 = test system: SF-295
PC-3 = test system: PC-3
M14 = test system: M14
NCI-H23 = test system: NCI-H23
NCI-H522 = test system: NCI-H522
NCI/ADR-RES = test system: NCI/ADR-RES
A549 = test system: A549
UO-31 = test system: UO-31
OVCAR-3 = test system: OVCAR-3

Measured: GI50

[N-]=[N+]=Nc1c(Cl)c(Cl)nc2ccccc12
inactive: MOLT-4 32.7 µM | SNB-19 > 100 µM | HOP-92 35.3 µM | SK-OV-3 > 100 µM | COLO 205 > 100 µM | RXF 393 88.5 µM | UACC-257 > 100 µM | MDA-MB-231 81.5 µM | OVCAR-8 > 100 µM | CCRF-CEM 54.5 µM | SK-MEL-28 > 100 µM | SF-295 82.8 µM | PC-3 > 100 µM | M14 > 100 µM | NCI-H23 75.5 µM | NCI-H522 71.3 µM | NCI/ADR-RES > 100 µM | A549 > 100 µM | UO-31 > 100 µM | OVCAR-3 34.5 µM

CN(C)CCNCc1ccc2c(-c3ccccc3)nc3cc(Cl)c(Cl)cc3n12
inactive: MOLT-4 8.53 µM | SNB-19 14 µM | HOP-92 13.1 µM | SK-OV-3 6.43 µM | COLO 205 6.92 µM | RXF 393 4.98 µM | UACC-257 9.4 µM | MDA-MB-231 10.2 µM | OVCAR-8 11.1 µM | CCRF-CEM 1.3 µM | SK-MEL-28 5.78 µM | SF-295 13.1 µM | PC-3 10.9 µM | M14 8.13 µM | NCI-H23 14.6 µM | NCI-H522 13.6 µM | NCI/ADR-RES 15.8 µM | A549 10.1 µM | UO-31 7.83 µM | OVCAR-3 17.5 µM

O=C1C=CC(=O)N1c1ccc(I)cc1
inactive: MOLT-4 2.56 µM | SNB-19 > 44.8 µM | HOP-92 21.3 µM | SK-OV-3 16.5 µM | COLO 205 6.18 µM | RXF 393 17.9 µM | UACC-257 18 µM | MDA-MB-231 23.6 µM | OVCAR-8 31.6 µM | CCRF-CEM 3.1 µM | SK-MEL-28 18.5 µM | SF-295 20.5 µM | PC-3 18.3 µM | M14 16.7 µM | NCI-H23 23.8 µM | NCI-H522 18.6 µM | NCI/ADR-RES 29.9 µM | A549 22.9 µM | UO-31 18.9 µM | OVCAR-3 20.8 µM

C[C@]1(O)CC(=O)c2c(c(-c3ccc4cc5c(c(O)c4c3O)C(=O)C[C@@](C)(O)C5)c3cccc(O)c3c2O)C1
inactive: MOLT-4 9.44 µM | SNB-19 6.52 µM | HOP-92 2.58 µM | SK-OV-3 10.3 µM | COLO 205 1.79 µM | RXF 393 4.58 µM | UACC-257 7.36 µM | MDA-MB-231 4.91 µM | OVCAR-8 5.02 µM | CCRF-CEM 6.71 µM | SK-MEL-28 10.4 µM | SF-295 4.86 µM | PC-3 3.08 µM | M14 5.56 µM | NCI-H23 3.69 µM | NCI-H522 4.88 µM | NCI/ADR-RES 5.15 µM | A549 4.24 µM | UO-31 4.16 µM | OVCAR-3 3.71 µM

Cc1ccc(S(=O)(=O)N2CC2CCCCC=O)cc1 (stereo not given)
inactive: MOLT-4 37.4 µM | SNB-19 > 100 µM | HOP-92 > 100 µM | SK-OV-3 > 100 µM | COLO 205 > 100 µM | RXF 393 > 100 µM | UACC-257 > 100 µM | MDA-MB-231 > 100 µM | OVCAR-8 > 100 µM | CCRF-CEM 21.6 µM | SK-MEL-28 > 100 µM | SF-295 > 100 µM | PC-3 > 100 µM | M14 51.3 µM | NCI-H23 > 100 µM | NCI-H522 72.8 µM | NCI/ADR-RES > 100 µM | A549 > 100 µM | UO-31 85.5 µM | OVCAR-3 > 100 µM

CC(NC(=O)C(NC(=O)CNC(=O)OC(C)(C)C)C(C)C)C(=O)Oc1c(Cl)c(Cl)c(Cl)c(Cl)c1Cl (stereo not given)
inactive: MOLT-4 34.6 µM | SNB-19 30.8 µM | HOP-92 16.3 µM | SK-OV-3 21.5 µM | COLO 205 17 µM | RXF 393 17.5 µM | UACC-257 15.9 µM | MDA-MB-231 22.6 µM | OVCAR-8 19.4 µM | CCRF-CEM 51.1 µM | SK-MEL-28 26.6 µM | SF-295 14.5 µM | PC-3 16 µM | M14 18.8 µM | NCI-H23 14 µM | NCI-H522 23.9 µM | NCI/ADR-RES 17.5 µM | A549 22.4 µM | UO-31 16 µM | OVCAR-3 13.2 µM

NCCCCCCn1c(-c2ccc(Br)cc2)cs/c1=N\c1ccccc1
inactive: MOLT-4 3.83 µM | SNB-19 14.9 µM | HOP-92 12.7 µM | SK-OV-3 17.2 µM | COLO 205 1.79 µM | RXF 393 10.9 µM | UACC-257 15.2 µM | MDA-MB-231 14.4 µM | OVCAR-8 11.9 µM | CCRF-CEM 6.9 µM | SK-MEL-28 12.7 µM | SF-295 16 µM | PC-3 5.86 µM | M14 1.44 µM | NCI-H23 14.7 µM | NCI-H522 10.5 µM | NCI/ADR-RES 12.2 µM | A549 12.5 µM | UO-31 10.4 µM | OVCAR-3 10.9 µM

Cc1cc(N(CCC#N)CCC#N)ccc1/C=C(\NC(=O)/C=C/c1ccccc1)C(=O)NN
inactive: MOLT-4 > 100 µM | SNB-19 > 40.9 µM | HOP-92 20.3 µM | SK-OV-3 31 µM | COLO 205 > 100 µM | RXF 393 > 57.3 µM | UACC-257 > 100 µM | MDA-MB-231 32.4 µM | OVCAR-8 > 54.1 µM | CCRF-CEM > 100 µM | SK-MEL-28 > 100 µM | SF-295 40 µM | PC-3 > 100 µM | M14 > 100 µM | NCI-H23 > 65.8 µM | NCI-H522 > 56.1 µM | NCI/ADR-RES > 100 µM | A549 > 100 µM | UO-31 > 100 µM | OVCAR-3 > 100 µM

CCCCNc1nc2ccccc2c2c1ncn2CC(C)C
inactive: MOLT-4 > 100 µM | SNB-19 > 100 µM | HOP-92 > 100 µM | SK-OV-3 > 100 µM | COLO 205 > 100 µM | RXF 393 > 100 µM | UACC-257 > 100 µM | MDA-MB-231 > 100 µM | OVCAR-8 > 100 µM | CCRF-CEM > 100 µM | SK-MEL-28 > 100 µM | SF-295 > 100 µM | PC-3 > 100 µM | M14 > 100 µM | NCI-H23 > 100 µM | NCI-H522 > 100 µM | NCI/ADR-RES > 100 µM | A549 > 100 µM | UO-31 > 100 µM | OVCAR-3 > 100 µM
